One experiment has as its system E.coli JT39. Put plainly: Antibacterial activity, E. coli JT39 (Table 2). The note with it: Escherichia coli, compound alone. The class given is cell-based.
A further experiment concerns S.aureus Russell. Briefly: Antibacterial activity, S. aureus Russell (Table 2). In kind it is cell-based. Particulars: Staphylococcus aureus, compound alone.

Converted amounts (≈) assume the structure as drawn. Where only a bound is given, the exact number is not on record here.

What is called MIC is the lowest concentration found to suppress growth. A low value points to a more susceptible organism. Consider `O=C(O)[C@H]1/C(=C/CNCCc2c[nH]c3ccccc23)O[C@@H]2CC(=O)N21` [Example 26, 9-N-(2-Indol-3'-ylethyl)aminodeoxyclavulanic acid], for which the MIC was 8 µg/mL (≈ 23.4 µM) against E.coli JT39 and at most 0.5 µg/mL with S.aureus Russell.
Take `NC(=O)CCNC/C=C1\O[C@@H]2CC(=O)N2[C@H]1C(=O)O` [Example 28, 9-N-(2-carbamoylethyl)aminodeoxyclavulanic acid]: the MIC with E.coli JT39 and against S.aureus Russell was 16 µg/mL (≈ 59.4 µM) in each case.
Take `CS(=O)(=O)NCCNC/C=C1\O[C@@H]2CC(=O)N2[C@H]1C(=O)O` [Example 12, 9-N-(2-methylsulphonamidoethyl)aminodeoxyclavulanic acid]: the figures for the minimal inhibitory concentration (MIC) in the experiment on E.coli JT39 and against S.aureus Russell were 31.2 µg/mL (≈ 97.7 µM) and 8 µg/mL (≈ 25.1 µM), respectively.
Taken in the same sequence, the figures for `O=C(O)[C@H]1/C(=C/CNCCCl)O[C@@H]2CC(=O)N21` [Example 2, 9-N-(2-Chloroethyl)amino-deoxyclavulanic acid] were 31.2 µg/mL (≈ 120 µM) and 8 µg/mL (≈ 30.7 µM).
With `O=C(O)[C@H]1/C(=C/CNCC(O)c2ccccc2)O[C@@H]2CC(=O)N21` (stereo partly shown) [Example 30, 9-N-(2-Hydroxy-2-phenylethyl)aminodeoxyclavulanic acid], the MIC against E.coli JT39 worked out at 31.2 µg/mL (≈ 98 µM); against S.aureus Russell it was 2 µg/mL (≈ 6.28 µM).
As to `O=C(CCNC/C=C1\O[C@@H]2CC(=O)N2[C@H]1C(=O)O)NCc1ccccc1` [Example 25, 9-N-(3-N-Benzylcarbamoyleth-1-yl)aminodeoxyclavulanic acid], the MIC against E.coli JT39 was 8 µg/mL (≈ 22.3 µM); in the experiment on S.aureus Russell, 2 µg/mL (≈ 5.57 µM).
In the case of `O=C(O)[C@H]1/C(=C/CNCCc2ccncc2)O[C@@H]2CC(=O)N21` [Example 5, 9-N-(2-Pyrid-4'-ylethyl)amino deoxyclavulanic acid], the minimum inhibitory concentration (MIC) worked out at 31.2 µg/mL (≈ 103 µM) with E.coli JT39 and 8 µg/mL (≈ 26.4 µM) against S.aureus Russell.
On to `CCOC(CCCNC/C=C1\O[C@@H]2CC(=O)N2[C@H]1C(=O)O)OCC` [Example 19, 9-N-(4,4-Diethoxybutyl)amino deoxyclavulanic acid], for which the MIC against E.coli JT39 stood at 31.2 µg/mL (≈ 91.1 µM); in the experiment on S.aureus Russell, 16 µg/mL (≈ 46.7 µM).
Taken in the same sequence, the figures for `COC(CNC/C=C1\O[C@@H]2CC(=O)N2[C@H]1C(=O)O)OC` [Example 1, 9-N-(2,2-Dimethoxyethyl)amino deoxyclavulanate] were 16 µg/mL (≈ 55.9 µM) and 8 µg/mL (≈ 27.9 µM).
Take `O=C(O)[C@H]1/C(=C/CNCCNc2ccccc2)O[C@@H]2CC(=O)N21` [Example 29, 9-N-(2-Phenylaminoethyl)aminodeoxyclavulanic acid]: the values for the MIC against E.coli JT39 and against S.aureus Russell were 16 µg/mL (≈ 50.4 µM) and 4 µg/mL (≈ 12.6 µM), respectively.
The like results for `O=C(O)[C@H]1/C(=C/CNCCCn2ccnc2)O[C@@H]2CC(=O)N21` [Example 18] were, in that order, 31.2 µg/mL (≈ 102 µM) and 8 µg/mL (≈ 26.1 µM).
Taken in the same sequence, the figures for `CS(=O)(=O)NCCCNC/C=C1\O[C@@H]2CC(=O)N2[C@H]1C(=O)O` [Example 13, 9-N-(3-Methylsulphonamidopropyl)aminodeoxyclavulanic acid] were 31.2 µg/mL (≈ 93.6 µM) and 16 µg/mL (≈ 48 µM).
The like results for `CC(=O)OCCCCNC/C=C1\O[C@@H]2CC(=O)N2[C@H]1C(=O)O` [Example 20, 9-N-(4-Acetoxybutyl)aminodeoxyclavulanic acid] were, in that order, 31.2 µg/mL (≈ 99.9 µM) and 16 µg/mL (≈ 51.2 µM).
With `O=C(O)[C@H]1/C(=C/CNCCS(=O)(=O)c2ccccc2)O[C@@H]2CC(=O)N21` [Example 23, 9-N-[2-(phenylsulphonyl)ethyl]aminodeoxyclavulanic acid], the minimal inhibitory concentration (MIC) was determined as 31.2 µg/mL (≈ 85.2 µM) with E.coli JT39 and 16 µg/mL (≈ 43.7 µM) in the experiment with S.aureus Russell.
Taken in the same sequence, the figures for `CC(C)(CCCNC/C=C1\O[C@@H]2CC(=O)N2[C@H]1C(=O)O)[N+](=O)[O-]` [Example 21, 9-N-[4-Methyl-4-nitropentyl]aminodeoxyclavulanic acid] were 8 µg/mL (≈ 24.4 µM) and 4 µg/mL (≈ 12.2 µM).
As to `O=C(O)[C@H]1/C(=C/CNCCc2ccccn2)O[C@@H]2CC(=O)N21` [Example 4, 9-N-(2-Pyrid-2'-ylethyl)aminodeoxyclavulanic acid], the minimum inhibitory concentration (MIC) came to 31.2 µg/mL (≈ 103 µM) against E.coli JT39 and 4 µg/mL (≈ 13.2 µM) against S.aureus Russell.
The like results for `CN(C)C(=O)NCCNC/C=C1\O[C@@H]2CC(=O)N2[C@H]1C(=O)O` [Example 22 (2nd compound), 9-N-(N'N'-dimethylureido)ethylaminodeoxyclavulanic acid] were, in that order, 62.5 µg/mL (≈ 200 µM) and 4 µg/mL (≈ 12.8 µM).

These data come from patent US4524073A, “β-Lactam compounds” (Beecham Group p.1.c., priority 1982, dated 1985).
